Experimental findings from patent US20220040162A1, “COMPOSITIONS COMPRISING A CRAC INHIBITOR AND A CORTICOSTEROID AND METHODS OF USE THEREOF” (Rhizen Pharmaceuticals AG, priority 2018, published 2022) are described below.

The test system of test [1] is U937 cells. The test is described as follows: H2O2 induced corticosteroid insensitivity in U937 cells (TNF-α induced IL-8, ELISA). The class given is cell-based. Conditions: H2O2 treated U937 macrophages; addition of 1 μM Compound A; FIG. 1B. The protocol: U937 cells were maintained in RPMI-1640 with 15 mM glutamine. 6×10^6 cells were taken in a T-25 flask with 12 ml of fresh medium and treated with 1 μM of Compound A and incubated at 37° C. and 5% CO2 for 30 min.
H2O2 was added at a final concentration of 200 μM to the above cells and incubated for 2 h.
Cells were pelleted and resuspended in serum free media and seeded on to a 96-well plate at 0.15×10^6 cells per well in 100 μl.
50 μl of 3× dexamethasone at desired concentrations was added and incubated for 45 min
50 μl of 4× concentration of TNF-α was added such that the final concentration was 10 ng/ml, to induce IL-8 and incubated for 18 h.
Supernatant was collected and IL-8 was estimated by ELISA.
IL-8 strips were plated with fresh or thawed supernatants and incubated at room temperature for 2 h or overnight at 4° C.
Contents were discarded and strips were washed with 200 μl of wash buffer per well for 15 s for a total of 5 times.
Strips were blotted dry and 100 μl per well of 1× detection antibody was added and incubated at room temperature for 1 h.
Strips were blotted dry and 100 μl per well of 1× Avidin-HRP antibody was added and incubated at room temperature for 30 min.
Contents were discarded and the strips were washed with 200 μl per well of wash buffer for 15 s for a total of 5 times. […]
Absorbance was read on a plate reader at A450 nm and A570 nm.
For orientation: ELISA stands for enzyme-linked immunosorbent assay.

For test [2], the system named is mononuclear cells isolated from peripheral blood. The test can be described thus: LPS-induced IL-1β, IL-6 and GM-CSF release in mononuclear cells isolated from healthy and asthmatic patients. The class given is cell-based, human. The conditions noted are these: single agent. The protocol:
Mononuclear cells were isolated from peripheral blood of healthy volunteers, and asthmatic patients. Briefly, PBMC were isolated from peripheral venous blood by standard laboratory procedures. Peripheral venous blood was mixed with dextran 500 at 3% (in 0.9% saline) in a proportion of 2:1. This mixture was incubated at room temperature for 30 min until sedimentation of erythrocytes. The upper phase was carefully collected and layered on Ficoll-Paque Histopaque 1077 density gradient in a proportion of 3:1. (PBMC) layer was isolated and quantified.
For the single agent study, isolated mononuclear cells were incubated with Compound A, or vehicle for 30 minutes before incubation with or without LPS for 6 hours in standard cell culture conditions (37° C. and 5% CO2). For the combination experiments, the same procedure was followed except that cells were incubated with Compound A (1 μM) in combination with fluticasone (0.1 nM). Supernatants were collected to measure IL-1β, IL-6, and GM-CSF. Data was analysed using Graphpad Prism.

Setting [3] is: asthmatic patients, LPS stimulus 6 hours.

`Cc1ccccc1C(=O)Nc1ccc(-n2nc(C(F)(F)F)cc2C2CC2)nc1` [Compound A, N-{6-[5-cyclopropyl-3-(trifluoromethyl)-1H-pyrazol-1-yl]pyridin-3-yl}-2-methyl benzamide]: the “reduction in IC50 of dexamethasone for IL-8 release” value in test [1] turned out to be 3 fold. For the same compound, in test [2] (setting [3]), the “percentage maximum effect (% Emax), GM-CSF release” value is reported as 80±16.4%; the “percentage maximum effect (% Emax), IL1β release” value amounted to 68.9±23.7%; the “percentage maximum effect (% Emax), IL6 release” value came out at 52.5±30.3%. Also, in test [2] (healthy donors, LPS stimulus), the “% Emax for IL1β compared with asthmatic cells” value is listed as “higher % Emax”.
